Assay results published in ChEMBL document CHEMBL5523718, “Design, synthesis, molecular modeling, in vitro and in vivo biological evaluation of potent anthranilamide derivatives as dual P-glycoprotein and CYP3A4 inhibitors” (Eur J Med Chem, 2024).

How the values were obtained:
[1] = biological target: T1, Broad substrate specificity ATP-binding cassette transporter ABCG2 (Homo sapiens, UniProt Q9UNQ0); test: Inhibition of BCRP (unknown origin) ATPase activity
T1 sequence (Q9UNQ0 whole entry): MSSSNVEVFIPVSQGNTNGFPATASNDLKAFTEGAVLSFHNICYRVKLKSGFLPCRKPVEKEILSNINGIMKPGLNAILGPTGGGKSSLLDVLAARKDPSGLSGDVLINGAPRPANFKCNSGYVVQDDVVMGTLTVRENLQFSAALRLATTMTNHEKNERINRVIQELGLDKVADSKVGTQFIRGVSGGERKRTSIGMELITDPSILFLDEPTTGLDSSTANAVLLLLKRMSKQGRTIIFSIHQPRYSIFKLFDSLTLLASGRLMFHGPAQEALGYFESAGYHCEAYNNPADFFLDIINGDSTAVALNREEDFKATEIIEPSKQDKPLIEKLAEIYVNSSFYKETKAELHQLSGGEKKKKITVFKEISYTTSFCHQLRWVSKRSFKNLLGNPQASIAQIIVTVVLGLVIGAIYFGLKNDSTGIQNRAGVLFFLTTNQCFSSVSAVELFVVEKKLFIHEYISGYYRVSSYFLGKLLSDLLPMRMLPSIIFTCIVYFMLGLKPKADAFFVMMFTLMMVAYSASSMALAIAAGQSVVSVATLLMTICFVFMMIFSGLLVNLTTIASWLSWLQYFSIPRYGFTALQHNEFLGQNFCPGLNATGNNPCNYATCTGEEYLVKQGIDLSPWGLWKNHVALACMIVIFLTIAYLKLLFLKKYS

[2] = Apparent permeability of compound across basolateral to apical side in human Caco-2 cells; type: ADME, cell-based
Cytochrome P450 2C9 = Cytochrome P450 2C9 (Homo sapiens, UniProt P11712); test: Inhibition of CYP2C9 (unknown origin) using Diclofenac as substrate; type: ADME
P-gp (ABCB1) = P-gp (ABCB1) (Homo sapiens, UniProt P08183); test: Inhibition of P-gp in human Caco-2 cells at 5 uM in presence of paclitaxel relative to control; type: cell-based; conditions: Caco-2, probe paclitaxel
[3] = Inhibition of CYP3A4 in monkey liver using luciferin-IPA as substrate microsome preincubated with compound for 10 mins followed by NADPH addition and measured after 5 mins; type: ADME, microsomes, Macaca mulatta
Cytochrome P450 1A2 = biological target: T2, Cytochrome P450 1A2 (Homo sapiens, UniProt P05177); test: Inhibition of CYP1A2 (unknown origin) using Phenacetin as substrate; type: ADME
T2 sequence (P05177 whole entry): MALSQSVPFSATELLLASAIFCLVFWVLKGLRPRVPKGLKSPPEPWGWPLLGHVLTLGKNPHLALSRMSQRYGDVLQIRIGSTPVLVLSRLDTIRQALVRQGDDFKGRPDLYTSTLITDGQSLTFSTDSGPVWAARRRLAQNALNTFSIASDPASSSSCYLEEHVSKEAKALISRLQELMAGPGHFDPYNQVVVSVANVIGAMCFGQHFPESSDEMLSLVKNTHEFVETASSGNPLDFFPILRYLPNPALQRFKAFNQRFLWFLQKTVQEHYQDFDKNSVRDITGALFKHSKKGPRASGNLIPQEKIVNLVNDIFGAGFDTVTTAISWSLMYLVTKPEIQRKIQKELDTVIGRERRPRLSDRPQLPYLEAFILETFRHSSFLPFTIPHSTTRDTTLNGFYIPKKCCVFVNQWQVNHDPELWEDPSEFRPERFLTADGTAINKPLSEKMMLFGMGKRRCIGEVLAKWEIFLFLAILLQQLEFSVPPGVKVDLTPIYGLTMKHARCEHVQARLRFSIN

[4] = Metabolic stability in monkey liver microsome assessed as half life; type: ADME, Macaca mulatta; conditions: rhesus monkey, liver microsomes
Cytochrome P450 2C19 = Cytochrome P450 2C19 (Homo sapiens, UniProt P33261); test: Inhibition of CYP2C19 (unknown origin) using S-mephenytoin as substrate; type: ADME
[5] = Apparent permeability of compound across apical to basolateral side in human Caco-2 cells; type: ADME, cell-based

Cytochrome P450 2C19, sequence (P33261 whole entry): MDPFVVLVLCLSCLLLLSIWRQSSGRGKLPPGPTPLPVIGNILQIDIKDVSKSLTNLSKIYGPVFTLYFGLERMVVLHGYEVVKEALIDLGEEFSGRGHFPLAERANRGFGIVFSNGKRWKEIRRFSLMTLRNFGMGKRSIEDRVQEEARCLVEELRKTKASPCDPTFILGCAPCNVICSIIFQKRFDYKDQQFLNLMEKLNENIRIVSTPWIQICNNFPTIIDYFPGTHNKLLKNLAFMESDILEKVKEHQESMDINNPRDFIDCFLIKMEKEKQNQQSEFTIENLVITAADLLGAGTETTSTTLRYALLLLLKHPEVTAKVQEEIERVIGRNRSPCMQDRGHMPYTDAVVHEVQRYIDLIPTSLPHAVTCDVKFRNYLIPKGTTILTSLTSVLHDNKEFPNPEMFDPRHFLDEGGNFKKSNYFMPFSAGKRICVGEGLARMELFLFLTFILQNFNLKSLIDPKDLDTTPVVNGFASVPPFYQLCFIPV
Cytochrome P450 2C9, sequence (P11712 whole entry): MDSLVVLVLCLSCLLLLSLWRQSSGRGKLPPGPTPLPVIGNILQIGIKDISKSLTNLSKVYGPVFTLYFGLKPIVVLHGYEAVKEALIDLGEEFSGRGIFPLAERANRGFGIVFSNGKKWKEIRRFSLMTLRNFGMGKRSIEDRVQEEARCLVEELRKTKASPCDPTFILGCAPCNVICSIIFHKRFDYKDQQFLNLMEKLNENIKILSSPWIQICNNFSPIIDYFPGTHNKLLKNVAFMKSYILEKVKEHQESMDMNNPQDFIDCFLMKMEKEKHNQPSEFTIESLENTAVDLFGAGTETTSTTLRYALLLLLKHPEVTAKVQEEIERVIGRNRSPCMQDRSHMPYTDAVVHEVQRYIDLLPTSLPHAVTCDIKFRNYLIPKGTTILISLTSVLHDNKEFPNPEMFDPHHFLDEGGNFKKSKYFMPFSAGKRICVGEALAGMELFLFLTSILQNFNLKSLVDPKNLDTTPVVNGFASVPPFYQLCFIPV
P-gp (ABCB1), sequence (P08183 whole entry): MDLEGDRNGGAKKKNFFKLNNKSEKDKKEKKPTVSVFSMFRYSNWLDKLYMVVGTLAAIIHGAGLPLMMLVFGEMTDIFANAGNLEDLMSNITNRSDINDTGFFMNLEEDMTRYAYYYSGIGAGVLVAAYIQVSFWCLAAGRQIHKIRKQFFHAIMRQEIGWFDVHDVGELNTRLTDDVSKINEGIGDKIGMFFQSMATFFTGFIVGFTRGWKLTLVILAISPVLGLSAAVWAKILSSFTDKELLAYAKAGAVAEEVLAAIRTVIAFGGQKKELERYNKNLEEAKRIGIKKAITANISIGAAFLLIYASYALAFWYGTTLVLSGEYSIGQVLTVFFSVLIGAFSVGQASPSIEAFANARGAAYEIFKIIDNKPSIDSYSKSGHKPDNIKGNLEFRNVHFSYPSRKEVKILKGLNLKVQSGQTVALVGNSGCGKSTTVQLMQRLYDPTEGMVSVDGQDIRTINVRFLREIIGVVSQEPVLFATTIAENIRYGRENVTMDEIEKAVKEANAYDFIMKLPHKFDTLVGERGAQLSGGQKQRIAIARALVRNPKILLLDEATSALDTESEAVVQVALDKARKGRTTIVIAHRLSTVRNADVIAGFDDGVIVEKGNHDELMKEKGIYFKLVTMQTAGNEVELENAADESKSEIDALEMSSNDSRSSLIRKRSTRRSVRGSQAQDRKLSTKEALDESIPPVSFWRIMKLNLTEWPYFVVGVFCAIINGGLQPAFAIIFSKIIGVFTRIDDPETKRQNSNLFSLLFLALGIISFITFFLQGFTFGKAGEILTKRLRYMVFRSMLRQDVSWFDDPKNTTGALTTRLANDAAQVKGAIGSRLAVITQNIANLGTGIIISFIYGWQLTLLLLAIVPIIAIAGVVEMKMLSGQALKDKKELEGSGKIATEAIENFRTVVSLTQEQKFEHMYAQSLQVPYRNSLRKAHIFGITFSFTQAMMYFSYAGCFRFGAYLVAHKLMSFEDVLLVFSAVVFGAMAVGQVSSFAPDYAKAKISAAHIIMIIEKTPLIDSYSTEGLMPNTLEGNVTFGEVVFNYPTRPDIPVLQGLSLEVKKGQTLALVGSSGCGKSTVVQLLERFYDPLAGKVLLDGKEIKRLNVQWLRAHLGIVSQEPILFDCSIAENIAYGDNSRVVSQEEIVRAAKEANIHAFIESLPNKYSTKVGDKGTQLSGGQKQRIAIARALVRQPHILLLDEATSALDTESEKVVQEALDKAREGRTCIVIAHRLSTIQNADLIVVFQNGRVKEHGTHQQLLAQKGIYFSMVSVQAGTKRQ

- IC50 [1]: > 1250 nM
- Papp B→A [2]: < 0.08 ×10⁻⁶ cm/s
- IC50 (Cytochrome P450 2C9): 36 µM
- inhibition at 5 µM (P-gp (ABCB1)): 99%
- IC50 [3]: 140 nM
- IC50 (Cytochrome P450 1A2): > 100 µM
- half-life [4]: 4.9 min
- IC50 (Cytochrome P450 2C19): 39 µM
- Papp A→B [5]: < 0.06 ×10⁻⁶ cm/s
SMILES: COc1cc(NC(=O)c2cc(=O)c3ccccc3o2)c(C(=O)Nc2ccc(C3CCN(Cc4cccc(-n5ccnc5)c4)CC3)cc2)cc1OC
